Experimental findings from ChEMBL document CHEMBL1146036, “Structural determinants of opioid activity in derivatives of 14-aminomorphinones: effect of substitution in the aromatic ring of cinnamoylaminomorphinones and codeinones” (J Med Chem, 2006) are described below.

The target in assay [1] is T1, Mu-type opioid receptor (Homo sapiens, UniProt P35372). Nature of the assay: Displacement of [3H]DAMGO from human recombinant MOR expressed in CHO cells. The format is cell-based. A general note: Loss of bound radioactivity is the signal in a displacement assay; it reports binding, not function.
Assay [2] has as its target T2, Delta-type opioid receptor (Homo sapiens, UniProt P41143). In words: Displacement of [3H]Cl-DPDPE from human recombinant DOR expressed in CHO cells. It counts as cell-based.
Assay [3] addresses T1, Mu-type opioid receptor. Nature of the assay: Stimulation of [35S]GTPgammaS binding to human recombinant MOR. The format is functional. A general note: GTPγS resists hydrolysis and so accumulates on activated G proteins.
For assay [4], the target named is T2, Delta-type opioid receptor. Nature of the assay: Stimulation of [35S]GTP-gamma-S binding to human recombinant DOR. It counts as functional.
The target in assay [5] is T2, Delta-type opioid receptor. Nature of the assay: Stimulation of [35S]GTPgammaS binding to human recombinant DOR relative to DPDPE. It counts as functional.
In assay [6] the test system is Mus musculus. Nature of the assay: Agonist activity in sc dosed mouse by tail flick assay. It counts as functional.
Assay [7] has as its system Mus musculus. Nature of the assay: Agonist activity in sc dosed mouse by phenylquinone abdominal stretching assay. It counts as functional. As to conditions: Abdomen.
Assay [8] has as its system Mus musculus. Nature of the assay: Antagonist activity against morphine-induced antinociception in sc dosed mouse by tail flick assay. It counts as functional. For orientation: Hot-plate and tail-flick tests time the reaction to a heat stimulus.
Assay [9] concerns the target T3, Kappa-type opioid receptor (Homo sapiens, UniProt P41145). Nature of the assay: biochemical. It counts as cell-based, CHO.
Description: Displacement of [3H]U-69593 from human recombinant KOR expressed in CHO cells
Assay [10] addresses T3, Kappa-type opioid receptor. Nature of the assay: Stimulation of [35S]GTP-gamma-S binding to human recombinant KOR. The format is functional.
For assay [11], the system named is Mus musculus. Nature of the assay: Agonist activity in mouse by hot water tail withdrawal assay at 32 mg/kg, sc. The format is functional. As to conditions: route subcutaneous.
The test system of assay [12] is Mus musculus. Nature of the assay: Antagonist activity against morphine-induced antinociception in sc dosed mouse by hot water tail withdrawal assay at 32 mg/kg, sc. It counts as functional. Also on record: scale not given: the % may be the effect or the level left. The conditions noted are these: route subcutaneous.
Assay [13] concerns the target T2, Delta-type opioid receptor. The conditions noted are these: CHO.
Description: Reversal of stimulation of [35S]GTP-gamma-S binding to human recombinant DOR transfected in CHO cells relative to DPDPE

Where only a bound is given, the exact number is not on record here.

T3 sequence (P41145 whole entry): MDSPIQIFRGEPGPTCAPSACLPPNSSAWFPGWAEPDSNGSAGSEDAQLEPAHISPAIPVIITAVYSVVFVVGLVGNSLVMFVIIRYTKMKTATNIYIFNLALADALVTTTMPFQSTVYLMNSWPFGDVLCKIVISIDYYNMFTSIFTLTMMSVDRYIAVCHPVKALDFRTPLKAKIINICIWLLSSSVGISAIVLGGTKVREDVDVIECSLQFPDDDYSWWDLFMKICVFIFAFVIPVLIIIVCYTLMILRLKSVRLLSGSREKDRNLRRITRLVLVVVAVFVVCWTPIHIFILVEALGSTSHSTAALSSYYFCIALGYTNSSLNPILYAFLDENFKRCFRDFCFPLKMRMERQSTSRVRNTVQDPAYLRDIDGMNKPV
T1 sequence (P35372 whole entry): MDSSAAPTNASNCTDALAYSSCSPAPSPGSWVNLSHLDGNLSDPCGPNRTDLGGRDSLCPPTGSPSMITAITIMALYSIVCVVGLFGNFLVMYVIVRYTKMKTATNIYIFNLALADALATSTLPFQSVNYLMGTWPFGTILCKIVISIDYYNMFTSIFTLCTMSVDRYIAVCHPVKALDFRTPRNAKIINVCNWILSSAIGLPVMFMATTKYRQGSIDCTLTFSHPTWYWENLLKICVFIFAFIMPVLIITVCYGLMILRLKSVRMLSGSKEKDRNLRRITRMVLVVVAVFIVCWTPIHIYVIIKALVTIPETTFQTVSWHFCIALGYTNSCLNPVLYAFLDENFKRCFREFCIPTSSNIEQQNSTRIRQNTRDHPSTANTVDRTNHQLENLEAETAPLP
T2 sequence (P41143 whole entry): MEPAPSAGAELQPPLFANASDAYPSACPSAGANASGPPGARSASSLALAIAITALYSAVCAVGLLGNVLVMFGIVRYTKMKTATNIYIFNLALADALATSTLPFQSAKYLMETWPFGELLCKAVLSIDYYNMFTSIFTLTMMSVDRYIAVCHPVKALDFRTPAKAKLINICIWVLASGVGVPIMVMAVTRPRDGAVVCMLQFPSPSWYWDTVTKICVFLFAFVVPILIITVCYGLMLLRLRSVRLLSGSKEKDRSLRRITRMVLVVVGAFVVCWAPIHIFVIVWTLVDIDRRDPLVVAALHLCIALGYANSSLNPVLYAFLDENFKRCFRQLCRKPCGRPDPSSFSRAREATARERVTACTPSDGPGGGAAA

Consider `COc1ccc2c3c1O[C@H]1C(=O)CC[C@@]4(NC(=O)/C=C/c5ccc(Cl)cc5)[C@@H](C2)N(C)CC[C@]314`, for which the Ki on Mu-type opioid receptor [1] amounted to 0.6 nM; in assay [2] it was 1 nM. Further, the concentration giving a half-maximal response (EC50) amounted to 0.9 nM on Mu-type opioid receptor [3] and 5 nM in assay [4]. For the same compound, the Activity in [5] stood at 50%. In addition, the ED50 in the assay with Mus musculus [6] turned out to be 0.04 mg/kg; in the assay with Mus musculus [7], 0.02 mg/kg. This compound came in with an AD50 in the assay on Mus musculus [8] above 30 mg/kg.
In the case of `CN1CC[C@]23c4c5ccc(O)c4O[C@H]2C(=O)C=C[C@@]3(NC(=O)/C=C/c2ccc(Cl)cc2)[C@H]1C5`, the ED50 in the assay with Mus musculus [6] stood at 0.5 mg/kg. Also, the AD50 with Mus musculus [8] was above 30 mg/kg.
For the compound `COc1ccc2c3c1O[C@H]1C(=O)CC[C@@]4(NC(=O)/C=C/c5ccccc5C)[C@@H](C2)N(C)CC[C@]314`, the Ki on Mu-type opioid receptor [1] stood at 0.4 nM; in assay [2], 0.42 nM; in [9] it was 2.3 nM. The EC50 at Mu-type opioid receptor [3] is 0.5 nM; in [4], 4.6 nM; in assay [10], 5.6 nM. The Activity in assay [5] is 108%.
Take `COc1ccc2c3c1O[C@H]1C(=O)CC[C@@]4(NC(=O)/C=C/c5ccccc5Cl)[C@@H](C2)N(C)CC[C@]314`: the Ki on Mu-type opioid receptor [1] was found to be 0.68 nM; in assay [2] it was 0.58 nM; in assay [9], 2.5 nM. Moreover, the EC50 stood at 0.5 nM at Mu-type opioid receptor [3], 2.2 nM in assay [4] and 8.5 nM in assay [10]. The Activity in assay [5] worked out at 110%.
As for `COc1ccc2c3c1O[C@H]1C(=O)CC[C@@]4(NC(=O)/C=C/c5ccc(C)cc5)[C@@H](C2)N(CC2CC2)CC[C@]314`, the ED50 in the assay on Mus musculus [6] was above 30 mg/kg; in the assay on Mus musculus [7], 0.1 mg/kg. The AD50 with Mus musculus [8] worked out at 5.7 mg/kg. Further, the Activity is reported as 10% with Mus musculus [11] and 40% with Mus musculus [12].
Regarding `CN1CC[C@]23c4c5cccc4O[C@H]2C(=O)CC[C@@]3(NC(=O)/C=C/c2ccccc2Cl)[C@H]1C5`, the EC50 at Mu-type opioid receptor [3] came to 0.04 nM; in assay [4] it was 0.1 nM; in assay [10], 0.1 nM. The ED50 was 0.12 mg/kg in the assay on Mus musculus [6] and 0.04 mg/kg in the assay on Mus musculus [7]. Besides, the AD50 in the assay with Mus musculus [8] was above 30 mg/kg.
`COc1ccc2c3c1O[C@H]1C(=O)CC[C@@]4(NC(=O)/C=C/c5ccc(Cl)cc5)[C@@H](C2)N(CC2CC2)CC[C@]314`: the inhibition constant Ki in assay [2] came to 4.8 nM. Further, the ED50 with Mus musculus [6] was above 30 mg/kg; with Mus musculus [7], 0.2 mg/kg. Also, the AD50 with Mus musculus [8] was above 6 mg/kg. The Activity worked out at 0% in the assay with Mus musculus [11] and 65% in the assay with Mus musculus [12]. The Ke in [13] was 7.2 nM.
With `COc1ccc2c3c1O[C@H]1C(=O)CC[C@@]4(NC(=O)/C=C/c5ccc(C)cc5)[C@@H](C2)N(C)CC[C@]314`, the inhibition constant Ki was 0.49 nM at Mu-type opioid receptor [1], 2.9 nM in [2] and 9.9 nM in assay [9]. The EC50 at Mu-type opioid receptor [3] is 2.5 nM; in assay [4], 76 nM; in assay [10], 84 nM. In addition, the Activity in assay [5] amounted to 86%. Besides, the 50% effective dose (ED50) with Mus musculus [6] is 0.06 mg/kg; in the assay with Mus musculus [7], 0.4 mg/kg. The AD50 in the assay on Mus musculus [8] is above 30 mg/kg.
Turning to `COc1ccc2c3c1O[C@H]1C(=O)CC[C@@]4(NC(=O)/C=C/c5ccccc5[N+](=O)[O-])[C@@H](C2)N(CC2CC2)CC[C@]314`, the Activity in the assay with Mus musculus [11] is recorded as 40%.
Take `COc1ccc2c3c1O[C@H]1C(=O)CC[C@@]4(NC(=O)/C=C/c5ccccc5)[C@@H](C2)N(CC2CC2)CC[C@]314`: the figures for the Activity in the assay on Mus musculus [11] and with Mus musculus [12] were 40% and 65%, respectively.
Regarding `O=C(/C=C/c1ccc([N+](=O)[O-])cc1)N[C@@]12CCC(=O)[C@@H]3Oc4c(O)ccc5c4[C@@]31CCN(CC1CC1)[C@@H]2C5`, the results for the Activity in the assay on Mus musculus [11] and with Mus musculus [12] were 40% and above 90%, respectively.

A word on the Ki: it is a measure of affinity in units of concentration, obtained from inhibition or displacement. For orientation: EC50 means the concentration at which the effect is half-maximal. Usually ED50 stands for the dose at which the effect has come halfway, by size or by number of responders.
